Measured values: PubChem BioAssay (NCI)
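Five compound concentrations were applied to cells in 96-well plates for 48 hours; endpoints were derived by simple linear interpolation of the resulting dose-response curve. TGI: concentration producing complete growth inhibition.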

Assays:
Experiment in all cases: inhibition of tumour cell growth, NCI panel, 48 h
[1] = tested on: HT29 colon
[2] = tested on: SK-MEL-5 melanoma
[3] = tested on: SK-OV-3 ovarian
[4] = tested on: SN12C renal
[5] = tested on: SR leukemia
[6] = tested on: ACHN renal
[7] = tested on: UACC-62 melanoma
[8] = tested on: COLO 205 colon
[9] = tested on: SK-MEL-2 melanoma
[10] = tested on: U251 CNS
[11] = tested on: NCI-H226 lung
[12] = tested on: HCT-15 colon
[13] = tested on: NCI/ADR-RES ovarian
[14] = tested on: CCRF-CEM leukemia
[15] = tested on: 786-0 renal
[16] = tested on: PC-3 prostate
[17] = tested on: SF-295 CNS
[18] = tested on: MDA-MB-435
[19] = tested on: MOLT-4 leukemia
[20] = tested on: MCF7 breast
[21] = tested on: OVCAR-8 ovarian
[22] = tested on: HS 578T breast
[23] = tested on: A549 NSCLC
[24] = tested on: A498 renal
[25] = tested on: MDA-N
[26] = tested on: T-47D breast
[27] = tested on: OVCAR-5 ovarian
[28] = tested on: SW-620 colon
[29] = tested on: HCT-116 colon
[30] = tested on: TK-10 renal
[31] = tested on: UACC-257 melanoma
[32] = tested on: UO-31 renal
[33] = tested on: SK-MEL-28 melanoma
[34] = tested on: NCI-H23 lung
[35] = tested on: SF-539 CNS
[36] = tested on: HOP-62 NSCLC
[37] = tested on: SNB-75 CNS
[38] = tested on: MALME-3M melanoma
[39] = tested on: BT-549 breast
[40] = tested on: NCI-H460 lung
[41] = tested on: IGROV1 ovarian
[42] = tested on: MDA-MB-231 breast
[43] = tested on: KM12 colon
[44] = tested on: DU-145 prostate
[45] = tested on: HCC-2998 colon
[46] = tested on: SNB-19 CNS
[47] = tested on: OVCAR-3 ovarian
[48] = tested on: HL-60(TB) leukemia
[49] = tested on: K-562 leukemia
[50] = tested on: M14 melanoma
[51] = tested on: SF-268 CNS
[52] = tested on: CAKI-1 renal
[53] = tested on: LOX IMVI melanoma
[54] = tested on: RXF 393 renal
[55] = tested on: RPMI-8226 leukemia
[56] = tested on: NCI-H522 lung
[57] = tested on: EKVX NSCLC
[58] = tested on: OVCAR-4 ovarian
[59] = tested on: HOP-92 NSCLC

COc1c2cc(C(C)(C)C)cc1CSCc1cc(C(C)(C)C)cc(c1OC)CCCCC2
TGI [1]: > 50 µM | TGI [2]: > 50 µM | TGI [3]: > 50 µM | TGI [4]: > 50 µM | TGI [5]: > 50 µM | TGI [6]: > 50 µM | TGI [7]: > 50 µM | TGI [8]: > 50 µM | TGI [9]: > 50 µM | TGI [10]: > 50 µM | TGI [11]: > 50 µM | TGI [12]: > 50 µM | TGI [13]: > 50 µM | TGI [14]: > 50 µM | TGI [15]: > 50 µM | TGI [16]: > 50 µM | TGI [17]: > 50 µM | TGI [18]: > 50 µM | TGI [19]: > 50 µM | TGI [20]: > 50 µM | TGI [21]: > 50 µM | TGI [22]: > 50 µM | TGI [23]: > 50 µM | TGI [24]: > 50 µM | TGI [25]: > 50 µM | TGI [26]: > 50 µM | TGI [27]: > 50 µM | TGI [28]: > 50 µM | TGI [29]: > 50 µM | TGI [30]: > 50 µM | TGI [31]: 49.1 µM | TGI [32]: > 50 µM | TGI [33]: > 50 µM | TGI [34]: > 50 µM | TGI [35]: > 50 µM | TGI [36]: > 50 µM | TGI [37]: > 50 µM | TGI [38]: > 50 µM | TGI [39]: > 50 µM | TGI [40]: > 50 µM | TGI [41]: > 50 µM | TGI [42]: > 50 µM | TGI [43]: > 50 µM | TGI [44]: > 50 µM | TGI [45]: > 50 µM | TGI [46]: > 50 µM | TGI [47]: > 50 µM | TGI [48]: > 50 µM | TGI [49]: > 50 µM | TGI [50]: > 50 µM | TGI [51]: > 50 µM

CN(C)CC1CCC/C(=C\c2ccc(N(C)C)cc2)C1=O (configuration not stated)
TGI [1]: 3.6 µM | TGI [2]: 31.4 µM | TGI [3]: 31.7 µM | TGI [4]: 29.6 µM | TGI [52]: 3.3 µM | TGI [6]: 34 µM | TGI [53]: 3.16 µM | TGI [7]: 29.2 µM | TGI [8]: 6.65 µM | TGI [9]: 22.3 µM | TGI [10]: 30.7 µM | TGI [11]: 64 µM | TGI [12]: 16.1 µM | TGI [13]: 65.3 µM | TGI [14]: > 100 µM | TGI [15]: 10.8 µM | TGI [16]: 32.2 µM | TGI [17]: 32.2 µM | TGI [54]: 21.2 µM | TGI [18]: 17.4 µM | TGI [19]: > 100 µM | TGI [20]: 2.82 µM | TGI [21]: 18 µM | TGI [22]: 26 µM | TGI [23]: 32.1 µM | TGI [24]: 30.9 µM | TGI [25]: 19.6 µM | TGI [26]: 4.11 µM | TGI [27]: 26.9 µM | TGI [55]: > 100 µM | TGI [28]: 3.29 µM | TGI [29]: 10.1 µM | TGI [30]: 4.96 µM | TGI [56]: 3.21 µM | TGI [31]: 26.3 µM | TGI [32]: 22.2 µM | TGI [33]: 19.1 µM | TGI [34]: 28.7 µM | TGI [35]: 28.8 µM | TGI [36]: 33 µM | TGI [37]: 30.7 µM | TGI [57]: 30.4 µM | TGI [38]: 24.5 µM | TGI [39]: 29.7 µM | TGI [40]: 28.5 µM | TGI [41]: 11.8 µM | TGI [42]: 15.7 µM | TGI [43]: 2.93 µM | TGI [44]: 34 µM | TGI [45]: 29.4 µM | TGI [46]: 31.9 µM | TGI [58]: 4.4 µM | TGI [59]: 9.79 µM | TGI [47]: 9.36 µM | TGI [48]: > 100 µM | TGI [49]: > 100 µM | TGI [50]: 9.46 µM | TGI [51]: 3.57 µM

CC(C)CN1CN(c2ccccc2)C2(CCN(CC(C)(c3ccc(F)cc3)C3OCCO3)CC2)C1=O (configuration not stated)
TGI [1]: 5.94 µM | TGI [2]: 4.95 µM | TGI [3]: 14.3 µM | TGI [4]: 19.1 µM | TGI [52]: 24.4 µM | TGI [5]: 12.8 µM | TGI [6]: 15 µM | TGI [53]: 5.31 µM | TGI [7]: 26.3 µM | TGI [8]: 3.71 µM | TGI [9]: 11.5 µM | TGI [10]: 17.2 µM | TGI [11]: 29.1 µM | TGI [12]: 16.6 µM | TGI [13]: 37.4 µM | TGI [14]: 18.1 µM | TGI [15]: 12.1 µM | TGI [16]: 14.3 µM | TGI [17]: 10.9 µM | TGI [54]: 21.9 µM | TGI [18]: 23.5 µM | TGI [19]: 7.32 µM | TGI [20]: 13.8 µM | TGI [21]: 29.3 µM | TGI [22]: 16.8 µM | TGI [23]: 19.7 µM | TGI [25]: 19.6 µM | TGI [26]: 15.3 µM | TGI [27]: 25.7 µM | TGI [28]: 17.5 µM | TGI [29]: 13.9 µM | TGI [30]: 23.4 µM | TGI [56]: 12.7 µM | TGI [31]: 10.8 µM | TGI [32]: 9.77 µM | TGI [33]: 10 µM | TGI [34]: 8.69 µM | TGI [35]: 18.2 µM | TGI [36]: 13.8 µM | TGI [37]: 20 µM | TGI [57]: 19.8 µM | TGI [38]: 17.2 µM | TGI [39]: 20.9 µM | TGI [43]: 15.6 µM | TGI [44]: 14.8 µM | TGI [45]: 8.52 µM | TGI [46]: 21.9 µM | TGI [58]: 29.7 µM | TGI [47]: 22.4 µM | TGI [48]: 12.8 µM | TGI [49]: 18 µM | TGI [50]: 8.46 µM | TGI [51]: 30.1 µM
